Results reported in ChEMBL document CHEMBL3046028, “3D-QSAR study of tyrosine and propanoic acid derivatives as PPAR/ dual agonists using CoMSIA” (Med Chem Res, 2013).

Legend:
[1] = molecular target: T1, Peroxisome proliferator-activated receptor alpha (Homo sapiens, UniProt Q07869); assay: Transactivation of GAL4-fused Homo sapiens (human) PPARalpha […] expressed in African green monkey CV1 cells by luciferase reporter gene assay; format: cell-based, CV-1
T1 sequence (Q07869 whole entry): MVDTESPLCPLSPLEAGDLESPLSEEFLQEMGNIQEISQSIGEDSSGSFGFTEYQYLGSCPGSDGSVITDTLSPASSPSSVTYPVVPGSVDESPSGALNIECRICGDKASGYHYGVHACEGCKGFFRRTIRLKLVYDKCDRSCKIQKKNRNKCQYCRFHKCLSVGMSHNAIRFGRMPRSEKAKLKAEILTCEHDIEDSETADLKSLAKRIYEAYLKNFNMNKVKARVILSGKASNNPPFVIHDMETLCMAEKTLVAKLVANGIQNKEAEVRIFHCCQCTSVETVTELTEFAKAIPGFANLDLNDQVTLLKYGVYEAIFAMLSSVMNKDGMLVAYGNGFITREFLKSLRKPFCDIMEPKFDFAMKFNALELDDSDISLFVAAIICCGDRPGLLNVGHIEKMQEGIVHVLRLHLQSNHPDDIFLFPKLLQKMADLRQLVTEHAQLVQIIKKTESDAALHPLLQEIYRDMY

[2] = molecular target: T2, Peroxisome proliferator-activated receptor gamma (Homo sapiens, UniProt P37231); format: cell-based, CV-1
T2 sequence (P37231 whole entry): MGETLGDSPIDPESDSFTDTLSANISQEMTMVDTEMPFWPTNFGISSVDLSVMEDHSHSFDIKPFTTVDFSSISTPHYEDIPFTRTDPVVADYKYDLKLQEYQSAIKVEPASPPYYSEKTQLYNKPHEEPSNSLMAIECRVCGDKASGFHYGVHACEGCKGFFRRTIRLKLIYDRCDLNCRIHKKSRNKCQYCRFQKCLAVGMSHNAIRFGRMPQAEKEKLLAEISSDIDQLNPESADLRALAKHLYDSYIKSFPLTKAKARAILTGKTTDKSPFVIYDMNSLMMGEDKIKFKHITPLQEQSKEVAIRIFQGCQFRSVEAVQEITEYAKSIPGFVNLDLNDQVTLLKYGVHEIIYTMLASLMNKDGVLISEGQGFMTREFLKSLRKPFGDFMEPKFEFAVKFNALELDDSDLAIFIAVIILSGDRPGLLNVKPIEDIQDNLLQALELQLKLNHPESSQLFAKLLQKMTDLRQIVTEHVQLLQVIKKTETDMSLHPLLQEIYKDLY
Description: Transactivation of GAL4-fused Homo sapiens (human) PPARgamma DNA binding domain expressed in African green monkey CV1 cells by luciferase reporter gene assay

Compound	EC50 ([1]; read-out: pEC50 (converted)) [nM]	EC50 [2] [nM]	EC50 ([1]; read-out: EC50) [nM]
CCO[C@@H](Cc1ccc(OC/C=C(/c2ccccc2)c2ccc(-c3ccccc3)cc2)cc1)C(=O)O	692		
CCO[C@@H](Cc1ccc(OC/C=C(/c2ccccc2)c2ccc(F)cc2)cc1)C(=O)O	3160		
Cc1sc(-c2ccccc2)nc1CCOc1ccc(C[C@@](O)(C(=O)O)c2ccccc2C(=O)c2ccccc2)cc1		0.1	1050
Cc1oc(-c2ccccc2)nc1CCOc1ccc(C[C@@]2(C(=O)O)CCOCCO2)cc1		24	6900
Cc1oc(-c2ccccc2)nc1CCOc1ccc(C[C@]2(C(=O)O)C=CC=CO2)cc1		20	
COC(=O)c1ccccc1[C@@](O)(Cc1ccc(OCCc2nc(-c3ccccc3)oc2C)cc1)C(=O)O		0.71	3500
Cc1oc(-c2ccccc2)nc1CCOc1ccc(C[C@@](O)(C(=O)O)c2ccccc2C(=O)c2ccccc2)cc1		0.34	457
Cc1sc(N2CCN(C)CC2)nc1CCOc1ccc(C[C@@](O)(C(=O)O)c2ccccc2C(=O)c2ccccc2)cc1		1.29	6460
